Laboratory results published in US12291504B2 (University of Pittsburgh—Of the Commonwealth System of …, priority 2018, dated 2025).

Experiments:
[1] = system: other major SULT isoforms found in liver and brain; experiment: Inhibition of SULT isoforms by CMP8 (FIG. 1); assay type: biochemical; conditions: at concentrations as high as 2 mM
Procedure: The initial rates of SULT catalyzed 1-HP sulfonation are plotted as a function of inhibitor concentration, and are normalized relative to [inhibitor]=0. Enzyme activity was monitored by the sulfonation dependent change in 1-HP fluorescence (λex=325 nm, λem=370 nm). Less than 5% of the concentration-limiting substrate converted at the reaction endpoint was consumed during initial-rate measurements. Each point is the average of three independent determinations. Conditions: SULT (20 nM, active sites), PAPS (0.50 mM, 17×Km), 1-HP (5.0 μM, 61×Km), KPO4 (50 mM), pH 7.5, 25±2° C.
Such inhibitors alleviate inhibition when used competitively against total inhibitors that bind at the same site. […] Given these favorable characteristics, it was reasoned that the CMP8-binding site offered a new target that could be used to control 1A3 activity. Consequently, the solution structure of the CMP8-binding site was determined using spin-label-triangulation NMR. As used herein, the “CMP8-binding site” refers to the SULT1A3 allosteric site defined herein, which is different from the catechin- and NSAID-binding sites.

SULT1A3 L67G = biological target: T1, SULT1A3 L67G (Homo sapiens, UniProt P0DMM9, L67G); experiment: Binding-site mutation effect on Ki CMP8, L67G; assay type: biochemical; conditions: L67G versus wild type
T1 construct: N-His/GST/MBP triple-tag (N, cleaved yes); made in house; host or cells: E. coli BL21(DE3)
Procedure: (§1) Initial-Rate Studies. Initial-rate parameters for the labeled or mutant SULT1A3 constructs were determined using a previously described 1-HP assay (25). Briefly, reactions were initiated by addition of PAPS (0.50 mM, 17×Km) to a solution containing enzyme (20 nM, active sites), 1-HP (2.0 μM, ˜24×Km), and KPO4 (50 mM), pH 7.5, 25±2° C. Reactions were monitored via fluorescence change associated with the conversion of 1-HP to 1-HP-S (λex=325 nm, λem=370 nm). Keq for the 1-HP sulfonation reaction is […]. Given the reaction conditions outlined above, ≥99% of 1-HP is converted to 1-HP-S, and ˜0.4% of PAPS is converted to PAP at equilibrium. […] Reaction progress curves were analyzed to obtain initial-rate parameters as described previously (26,27).
(§2) Inhibition studies. Inhibition parameters were determined under conditions identical to those described above (see, Initial-Rate Studies) except that [1-HP] was increased to 5.0 μM (˜61×Km) and inhibitor concentration was varied between 0.20-20×Ki. Ki was obtained using a least-squares fit to the following partial inhibition equation (25,28): v=kcat·(Ki+(1/kcat inh)·[I])/(Ki+[I]), where kcat inh is enzyme turnover at saturating substrates and allosteric inhibitor.
(§3) Confirming the Structure. The structure was validated by testing its ability to predict the consequences of mutations on the initial-rate parameters of the enzyme. […]

SULT1A3 F222A, H226A = biological target: T2, SULT1A3 F222A, H226A (Homo sapiens, UniProt P0DMM9, F222A/H226A); experiment: Binding-site mutation effect on Ki CMP8, F222A, H226A; assay type: biochemical; conditions: H226A versus wild type
T2 construct: N-His/GST/MBP triple-tag (N, cleaved yes); made in house; host or cells: E. coli BL21(DE3)
Procedure: as §1, §2, §3

[2] = biological target: SULT1A3 spin-labeled at Cys 198 (Homo sapiens, UniProt P0DMM9, E198C); experiment: Initial-rate parameters, spin-labeled SULT1A3 mutant 198
Procedure: Covalent Tagging of SULT1A3 Cys Constructs. Labeling of the SULT1A3 Cys constructs was performed as described previously (17,18,21). Briefly, 3-maleimido-PROXYL (spin label) or N-cyclohexylmaleimide (diamagnetic control) was added to an enzyme containing solution at 20-fold excess over reactive Cys. Unreacted Cys was monitored using DNTB (17,18,21); reactions were considered complete when >98% of the Cys was labeled. Reaction conditions: SULT1A3 (50 μM, monomer), 3-maleimido-PROXYL or N-cyclohexylmaleimide (1.0 mM), PAP (0.50 mM), KPO4 (50 mM), pH 7.5, 4±2° C. To prepare samples for NMR, reaction mixtures were dialyzed three times against 40 volumes of PAP (0.50 mM), KPO4 (50 mM), pD 7.4, D2O (>95%), 4±2° C.
Initial-Rate Studies. Initial-rate parameters for the labeled or mutant SULT1A3 constructs were determined using a previously described 1-HP assay (25). […] Reactions were monitored via fluorescence change associated with the conversion of 1-HP to 1-HP-S (λex=325 nm, λem=370 nm). Keq for the 1-HP sulfonation reaction is −250. Given the reaction conditions outlined above, ≥99% of 1-HP is converted to 1-HP-S, and ˜0.4% of PAPS is converted to PAP at equilibrium. […] Reaction progress curves were analyzed to obtain initial-rate parameters as described previously (26,27).

SULT1A3 = SULT1A3 (Homo sapiens, UniProt P0DMM9); experiment: Pre-steady state binding of PAP to SULT1A3 (stopped-flow fluorescence); design: Wild-type and mutant SULT1A3 coding regions were inserted into a pGEX-6P expression vector; N-His/GST/MBP triple-tag (N, cleaved yes); made in house; host or cells: E. coli BL21(DE3); conditions: PAP release, saturating CMP8
Procedure: The effect of CMP8 on PAP binding to SULT1A3 was monitored using a stopped-flow spectrofluorimeter (λex=290 nm, λem≥330 nm (cutoff filter)). […] Each kobs value was determined in triplicate and the averaged values are shown. kon and koff are given, respectively, by the slopes and intercepts obtained from linear least-squares fitting of the kobs vs [PAP] plots.
(§4) Pre-Steady State Binding Studies. The pre-steady state binding of PAP to SULT1A3 was monitored via ligand-induced enzyme fluorescence changes in SULT1A3 using an Applied Photophysics SX20 stopped-flow spectrofluorimeter (32). […] All reactions were pseudo first order in [PAP]. The observed rate constant (kobs) at a given [PAP] was taken as the average of three independent progress curves each obtained from a single-exponential fit of 6-9 averaged, binding progress curves. The rate constants, kon and koff, were obtained from the slopes and intercepts predicted by linear least-squares analysis of four-points kobs vs [PAP] plots.
Given that CMP8 interacts with the SULT1A3 cap, it was reasoned it might inhibit by stabilizing the cap-closed form(s) of the enzyme. To test this hypothesis, the microscopic rate constants for nucleotide binding and release were determined in the presence and absence of saturating CMP8. The binding reactions were monitored via intrinsic fluorescence changes associated with ligand binding (30-32) (see, Methods). The resulting kobs vs [PAP] plots are presented in FIG. 4. kon and koff are obtained, respectively, from the slopes and intercepts of the plots (30,31), see Table C. […] Thus, CMP8 does indeed slow nucleotide release by increasing Kiso and thus stabilizing the closed form of the cap.
as §4, with “(29).” for “(32).”

SULT1E1 = biological target: T3, SULT1E1 (Homo sapiens, UniProt P49888); experiment: SULT1E1 inhibition test; assay type: biochemical; conditions: at 50 uM
T3 sequence (P49888 1-294): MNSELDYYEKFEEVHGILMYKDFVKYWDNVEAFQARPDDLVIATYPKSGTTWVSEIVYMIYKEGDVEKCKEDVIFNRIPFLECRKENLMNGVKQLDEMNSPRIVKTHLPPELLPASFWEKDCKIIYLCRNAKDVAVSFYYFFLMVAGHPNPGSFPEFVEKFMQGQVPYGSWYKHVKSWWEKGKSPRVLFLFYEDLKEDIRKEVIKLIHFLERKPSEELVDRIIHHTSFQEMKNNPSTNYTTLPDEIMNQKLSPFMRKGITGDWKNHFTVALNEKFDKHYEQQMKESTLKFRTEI

Chain of SULT1A3 spin-labeled at Cys 198 (P0DMM9 whole entry E198C): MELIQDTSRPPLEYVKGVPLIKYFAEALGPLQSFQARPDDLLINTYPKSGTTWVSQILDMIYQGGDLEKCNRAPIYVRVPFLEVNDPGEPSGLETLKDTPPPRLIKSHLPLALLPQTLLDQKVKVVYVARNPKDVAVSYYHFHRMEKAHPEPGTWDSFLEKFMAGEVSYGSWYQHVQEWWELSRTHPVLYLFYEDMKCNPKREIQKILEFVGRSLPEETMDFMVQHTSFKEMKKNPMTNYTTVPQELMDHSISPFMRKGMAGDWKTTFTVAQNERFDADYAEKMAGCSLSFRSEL
T1 sequence (P0DMM9 whole entry L67G): as the sequence (P0DMM9 whole entry E198C) above, with L67G, C198E counted along it
Chain of SULT1A3 (P0DMM9 whole entry): as the sequence (P0DMM9 whole entry E198C) above, with C198E counted along it
T2 sequence (P0DMM9 whole entry F222A/H226A): as the sequence (P0DMM9 whole entry E198C) above, with C198E, F222A, H226A counted along it

Row | Compound | inhibition of other major SULT isoforms [1] | increase in Ki CMP8 (SULT1A3 L67G) | increase in Ki CMP8 (SULT1A3 F222A, H226A) | Ki [2] | koff (+CMP8)/koff (−CMP8), ratio of nucleotide off-rate constants (SULT1A3) | inhibition of SULT1E1 (SULT1E1)
1 | CC(C)Cc1ccc2cc(CO)ccc2n1 [Compound 8, (2-Isobutylquinolin-6-yl)methanol] | does not detectably inhibit | 5.3 fold | 60 fold | 46 nM | 0.41 (±0.05) | –
2 | CC(C)Cc1ccc2cc(CCC(N)=O)ccc2n1 [Compound 12] | – | – | – | – | – | no inhibition was detected
